Results from PMC11785791, “Cryo-EM structure of the calcium-sensing receptor complexed with the kokumi substance γ-glutamyl-valyl-glycine” (Scientific Reports, 2025).
Values belong to the compound of their own block, whether it stands above or below them. *1 amine or outer side, *2 acyl side, *3 side chain or, on linkers, in order; H or OH if unused. Where a SMILES comes first, the peptide text is derived from it. γGlu = O=C(O)[CH](CCC(=O)[*:2])N[*:1]

Key:
human CaSR F42S mutant = target: T1, human CaSR F42S mutant (Homo sapiens, UniProt P41180, F42S); assay: Calcium mobilization assay, CaSR F42S mutant; assay type: cell-based; settings: for Response in calcium mobilization assay: in words
T1 construct: expressed in transfected cells; host or cells: PEAKrapid cells (ATCC), pcDNA 3.1, transient transfection
T1 sequence (P41180 20-1078 F42S): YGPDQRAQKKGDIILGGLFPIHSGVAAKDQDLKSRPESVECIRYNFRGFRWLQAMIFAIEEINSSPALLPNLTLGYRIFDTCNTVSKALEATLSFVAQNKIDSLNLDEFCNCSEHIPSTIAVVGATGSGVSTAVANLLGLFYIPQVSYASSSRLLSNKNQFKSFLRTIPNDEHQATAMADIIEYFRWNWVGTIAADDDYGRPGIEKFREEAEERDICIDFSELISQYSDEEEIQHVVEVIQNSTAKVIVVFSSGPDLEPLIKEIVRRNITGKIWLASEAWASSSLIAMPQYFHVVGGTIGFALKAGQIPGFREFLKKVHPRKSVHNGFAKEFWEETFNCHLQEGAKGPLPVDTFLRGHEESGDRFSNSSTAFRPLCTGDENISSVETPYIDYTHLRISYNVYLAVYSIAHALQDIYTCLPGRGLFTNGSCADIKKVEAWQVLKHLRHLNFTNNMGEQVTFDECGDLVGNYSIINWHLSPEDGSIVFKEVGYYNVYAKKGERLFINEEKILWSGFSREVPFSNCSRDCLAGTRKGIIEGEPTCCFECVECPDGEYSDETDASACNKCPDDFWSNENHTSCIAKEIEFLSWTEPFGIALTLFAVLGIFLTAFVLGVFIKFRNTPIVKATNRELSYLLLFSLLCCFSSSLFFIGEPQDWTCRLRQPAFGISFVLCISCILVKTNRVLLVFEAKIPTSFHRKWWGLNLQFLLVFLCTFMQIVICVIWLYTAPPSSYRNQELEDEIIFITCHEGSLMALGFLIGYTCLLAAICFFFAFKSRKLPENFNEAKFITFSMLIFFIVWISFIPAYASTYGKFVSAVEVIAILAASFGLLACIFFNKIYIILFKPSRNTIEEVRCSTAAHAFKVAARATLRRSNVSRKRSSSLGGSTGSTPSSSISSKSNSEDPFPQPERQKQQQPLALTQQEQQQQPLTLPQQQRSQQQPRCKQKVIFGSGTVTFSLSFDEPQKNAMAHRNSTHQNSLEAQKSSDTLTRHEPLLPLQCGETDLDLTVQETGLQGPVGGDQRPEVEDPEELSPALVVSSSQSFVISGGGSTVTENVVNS
Method: The CaSR receptor responsiveness was assessed by using PEAK^rapid cells (ATCC, Manassas, VA, USA) transiently transfected with the receptor DNA by the method reported by Kitajima et al.[6]. Briefly, human CaSR or its mutant cDNA with a signal sequence (MAFYSCCWVLLALTWHTSA) followed by FLAG-tag (DYKDDDDK) were inserted into pcDNA 3.1 expression vectors in Opti-MEM I medium (Thermo Fisher Scientific), mixed with FuGENE 6 (Roche), and poured onto PEAK^rapid cells grown at a submaximal concentration. After culturing for 24 h in 96-well plates, the cells were incubated with 5 µM Calcium-5 solution (Calcium-5 assay kit, Molecular Devices) for 45–60 min, and measurements were performed using a plate reader (FDSS/µCELL, Hamamatsu Photonics, Shizuoka, Japan) and its associated software. The activation of CaSR expressed in cells increases the intracellular Ca^2+ concentration, which is measured using a Ca^2+-sensitive dye. The binding of Ca^2+ to the Ca^2+-sensitive dye increases dye fluorescence, with excitation at 485 nm and emission at 525 nm. Test compounds were dissolved and administered in the assay buffer (146 mM NaCl, 1 mM MgSO4, 20 mM HEPES, 1 mM CaCl2, 2.5 mM probenecid, and 1.39 mM glucose, pH 7.4). Transiently transfected cells were challenged with compounds and compared with the vehicle alone and/or mock-transfected cells. The concentration dependence of the fluorescence intensity (influx of Ca^2+) was analyzed using the plate reader at 1 s intervals for 180 s. For the dose–response curve calculations, peak fluorescence responses after the addition of compounds were corrected for, normalized to the background fluorescence (ΔF/F = –F − F0)/F0), and baseline noise was subtracted. Dose–response curves were calculated by non-linear regression using GraphPad PRISM 8.0.

CaSR = tested on: CaSR; parameters: method as in PMID 19892707, PMID 27477658; settings: screening of dipeptides and tripeptides, previous work; cited from earlier work

- Response in calcium mobilization assay (human CaSR F42S mutant): no response
SMILES: N[C@@H](Cc1ccc(O)cc1)C(=O)O [L-Tyr, L-tyrosine]

- Emax (% of wild-type values) (human CaSR F42S mutant): 87.0 % of WT
- EC50 (human CaSR F42S mutant; mean ± s.e.m., n = 3): 6.6 ± 0.3 mM
SMILES: [Ca+2].[Cl-].[Cl-] [CaCl2]

SMILES: CC(C)C(NC(=O)CCC(N)C(=O)O)C(=O)NCC(=O)O (stereo not drawn) [γ-EVG, γ-glutamyl-valyl-glycine] (γGlu-Val-Gly-OH; configuration not given here)
- CaSR activation potency (CaSR): most potent activity among those tested

- Response in calcium mobilization assay (human CaSR F42S mutant): no response
SMILES: CC(C)[C@H](NC(=O)CC[C@H](N)C(=O)O)C(=O)O [γ-EV, γ-glutamyl-valine]
